From ChEMBL document CHEMBL1134526, “Enantioselective syntheses of potent retinoid X receptor ligands: differential biological activities of individual antipodes” (J Med Chem, 2001)

Columns and labels:
Format in all cases: functional
Mus musculus [1] = experiment: Hypoglycemic activity in mice at 8 mg/kg dose at day=0
Mus musculus [2] = experiment: Hypoglycemic activity in mice at 8 mg/kg dose at day=7
Mus musculus [3] = experiment: Hypoglycemic activity in mice at 2 mg/kg dose at day=0
Mus musculus [4] = experiment: Hypoglycemic activity in mice at 2 mg/kg dose at day=7
Mus musculus [5] = experiment: Hypoglycemic activity in mice at 0.4 mg/kg dose at day=0
Mus musculus [6] = experiment: Hypoglycemic activity in mice at 0.4 mg/kg dose at day=7

Row | Structure (SMILES) | Glucose level (Mus musculus [1]) [mg/dL] | Glucose level (Mus musculus [2]) [mg/dL] | Glucose level (Mus musculus [3]) [mg/dL] | Glucose level (Mus musculus [4]) [mg/dL] | Glucose level (Mus musculus [5]) [mg/dL] | Glucose level (Mus musculus [6]) [mg/dL]
1 | CC(/C=C/[C@H]1C[C@@]1(C)c1ccc2c(c1)C(C)(C)CCC2(C)C)=C\C(=O)O | 404 | 441 | 400 | 391 |  | 
2 | CC(/C=C/[C@@H]1C[C@]1(C)c1ccc2c(c1)C(C)(C)CCC2(C)C)=C\C(=O)O [IRX-4204] |  |  | 404 | 221 | 406 | 291
